The supplement of paper PMC10307832

Assays:
Assay in all cases: relative viability (nuclei count vs DMSO), 5 days (fraction); higher = more cells survive
ABC-1 = test system: ABC-1
Outline: (§1)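 Each reported value is a median over duplicate plates. It expresses relative viability: treated-well nuclei count divided by vehicle-well nuclei count. Lung cancer cell lines in 1536-well plates were dosed by pin tool a day after seeding, alone with one drug or with a fixed anchor-drug dose plus five library-drug doses (not always all listed) in √10 steps, and nuclei were counted after 5 days.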

CAL-12T = test system: CAL-12T
Outline: as §1

COR-L 105 = test system: COR-L 105
Outline: as §1

ChaGo-K-1 = test system: ChaGo-K-1
Outline: as §1

EMC-BAC-2 = test system: EMC-BAC-2
Outline: as §1

EPLC-272H = test system: EPLC-272H
Outline: as §1

HCC-15 = test system: HCC-15
Outline: as §1

HCC-78 = test system: HCC-78
Outline: as §1

HOP-62 = test system: HOP-62
Outline: as §1

LXF-289 = test system: LXF-289
Outline: as §1

NCI-H1666 = test system: NCI-H1666
Outline: as §1

NCI-H1755 = test system: NCI-H1755
Outline: as §1

NCI-H1915 = test system: NCI-H1915
Outline: as §1

NCI-H1975 = test system: NCI-H1975
Outline: as §1

NCI-H1993 = test system: NCI-H1993
Outline: as §1

NCI-H2023 = test system: NCI-H2023
Outline: as §1

NCI-H2085 = test system: NCI-H2085
Outline: as §1

NCI-H2126 = test system: NCI-H2126
Outline: as §1

NCI-H3122 = test system: NCI-H3122
Outline: as §1

NCI-H322M = test system: NCI-H322M
Outline: as §1

NCI-H358 = test system: NCI-H358
Outline: as §1

NCI-H441 = test system: NCI-H441
Outline: as §1

UMC-11 = test system: UMC-11
Outline: as §1

O=C(O)c1ccc(-c2c[nH]c3ncc(-c4ccccc4)cc23)cc1C1CCCC1 + CS(=O)(=O)N1CCN(Cc2cc3nc(-c4cccc5[nH]ncc45)nc(N4CCOCC4)c3s2)CC1 [Pictilisib] (partner 1 µM)
relative viability (ABC-1; first compound 0.04 µM): 0.673 | relative viability (ABC-1; first compound 0.1265 µM): 0.596 | relative viability (ABC-1; first compound 0.4 µM): 0.689 | relative viability (ABC-1; first compound 1.265 µM): 0.757 | relative viability (CAL-12T; first compound 0.04 µM): 0.478 | relative viability (CAL-12T; first compound 0.1265 µM): 0.696 | relative viability (CAL-12T; first compound 0.4 µM): 0.494 | relative viability (CAL-12T; first compound 1.265 µM): 0.448 | relative viability (COR-L 105; first compound 0.04 µM): 0.435 | relative viability (COR-L 105; first compound 0.1265 µM): 0.429 | relative viability (COR-L 105; first compound 0.4 µM): 0.497 | relative viability (COR-L 105; first compound 1.265 µM): 0.388 | relative viability (ChaGo-K-1; first compound 0.04 µM): 0.788 | relative viability (ChaGo-K-1; first compound 0.1265 µM): 1.11 | relative viability (ChaGo-K-1; first compound 0.4 µM): 0.649 | relative viability (ChaGo-K-1; first compound 1.265 µM): 0.923 | relative viability (EMC-BAC-2; first compound 0.04 µM): 0.555 | relative viability (EMC-BAC-2; first compound 0.1265 µM): 0.557 | relative viability (EMC-BAC-2; first compound 0.4 µM): 0.537 | relative viability (EMC-BAC-2; first compound 1.265 µM): 0.554 | relative viability (EPLC-272H; first compound 0.04 µM): 0.381 | relative viability (EPLC-272H; first compound 0.1265 µM): 0.318 | relative viability (EPLC-272H; first compound 0.4 µM): 0.266 | relative viability (EPLC-272H; first compound 1.265 µM): 0.342 | relative viability (HCC-15; first compound 0.04 µM): 0.736 | relative viability (HCC-15; first compound 0.1265 µM): 0.839 | relative viability (HCC-15; first compound 0.4 µM): 0.755 | relative viability (HCC-15; first compound 1.265 µM): 0.514 | relative viability (HCC-78; first compound 0.04 µM): 0.231 | relative viability (HCC-78; first compound 0.1265 µM): 0.263 | relative viability (HCC-78; first compound 0.4 µM): 0.179 | relative viability (HCC-78; first compound 1.265 µM): 0.168 | relative viability (HOP-62; first compound 0.04 µM): 1.05 | relative viability (HOP-62; first compound 0.1265 µM): 0.884 | relative viability (HOP-62; first compound 0.4 µM): 0.686 | relative viability (HOP-62; first compound 1.265 µM): 0.66 | relative viability (LXF-289; first compound 0.04 µM): 0.762 | relative viability (LXF-289; first compound 0.1265 µM): 0.869 | relative viability (LXF-289; first compound 0.4 µM): 0.645 | relative viability (LXF-289; first compound 1.265 µM): 0.404 | relative viability (NCI-H1666; first compound 0.04 µM): 0.406 | relative viability (NCI-H1666; first compound 0.1265 µM): 0.439 | relative viability (NCI-H1666; first compound 0.4 µM): 0.451 | relative viability (NCI-H1666; first compound 1.265 µM): 0.251 | relative viability (NCI-H1755; first compound 0.04 µM): 0.381 | relative viability (NCI-H1755; first compound 0.1265 µM): 0.603 | relative viability (NCI-H1755; first compound 0.4 µM): 0.45 | relative viability (NCI-H1755; first compound 1.265 µM): 0.442 | relative viability (NCI-H1915; first compound 0.04 µM): 0.992 | relative viability (NCI-H1915; first compound 0.1265 µM): 0.876 | relative viability (NCI-H1915; first compound 0.4 µM): 0.94 | relative viability (NCI-H1915; first compound 1.265 µM): 0.803 | relative viability (NCI-H1975; first compound 0.04 µM): 0.256 | relative viability (NCI-H1975; first compound 0.1265 µM): 0.297 | relative viability (NCI-H1975; first compound 0.4 µM): 0.309 | relative viability (NCI-H1975; first compound 1.265 µM): 0.271 | relative viability (NCI-H1993; first compound 0.04 µM): 0.823 | relative viability (NCI-H1993; first compound 0.4 µM): 0.742 | relative viability (NCI-H1993; first compound 1.265 µM): 0.789 | relative viability (NCI-H2023; first compound 0.04 µM): 0.249 | relative viability (NCI-H2023; first compound 0.1265 µM): 0.302 | relative viability (NCI-H2023; first compound 0.4 µM): 0.228 | relative viability (NCI-H2023; first compound 1.265 µM): 0.224 | relative viability (NCI-H2085; first compound 0.04 µM): 0.431 | relative viability (NCI-H2085; first compound 0.1265 µM): 0.427 | relative viability (NCI-H2085; first compound 0.4 µM): 0.536 | relative viability (NCI-H2085; first compound 1.265 µM): 0.568 | relative viability (NCI-H2126; first compound 0.04 µM): 0.551 | relative viability (NCI-H2126; first compound 0.1265 µM): 0.486 | relative viability (NCI-H2126; first compound 0.4 µM): 0.497 | relative viability (NCI-H2126; first compound 1.265 µM): 0.46 | relative viability (NCI-H3122; first compound 0.04 µM): 0.565 | relative viability (NCI-H3122; first compound 0.1265 µM): 0.683 | relative viability (NCI-H3122; first compound 0.4 µM): 0.619 | relative viability (NCI-H3122; first compound 1.265 µM): 0.574 | relative viability (NCI-H322M; first compound 0.04 µM): 0.564 | relative viability (NCI-H322M; first compound 0.1265 µM): 0.526 | relative viability (NCI-H322M; first compound 0.4 µM): 0.487 | relative viability (NCI-H322M; first compound 1.265 µM): 0.482 | relative viability (NCI-H358; first compound 0.04 µM): 0.39 | relative viability (NCI-H358; first compound 0.1265 µM): 0.364 | relative viability (NCI-H358; first compound 0.4 µM): 0.371 | relative viability (NCI-H358; first compound 1.265 µM): 0.255 | relative viability (NCI-H441; first compound 0.04 µM): 0.489 | relative viability (NCI-H441; first compound 0.1265 µM): 0.517 | relative viability (NCI-H441; first compound 0.4 µM): 0.469 | relative viability (NCI-H441; first compound 1.265 µM): 0.338 | relative viability (UMC-11; first compound 0.04 µM): 0.827 | relative viability (UMC-11; first compound 0.1265 µM): 0.937 | relative viability (UMC-11; first compound 0.4 µM): 0.853 | relative viability (UMC-11; first compound 1.265 µM): 0.775
